The results in this text go back to patent US7030150B2, “Benzimidazole compounds and antiviral uses thereof” (Trimeris, Inc., priority 2001, dated 2006).

In this data set the test system is uninfected Hep2 cells.

Each structure is given as a SMILES string.

As to `CC1C=CC(C)N1Cc1nc2ccccc2n1Cc1nc2ccccc2[nH]1` (stereo not drawn) [compound 207], the CC50 is ≥ 100 µM.
Next, `CC(C)NCc1nc2ccccc2n1Cc1nc2ccccc2[nH]1` [compound 152]: ≥ 100 µM; `CC(C)N(Cc1nc2ccccc2n1Cc1nc2ccccc2[nH]1)CC(O)c1ccc(O)c(O)c1` (stereo not drawn) [compound 107]: ≥ 100 µM; `c1ccc2[nH]c(Cn3c(CN4CCC4)nc4ccccc43)nc2c1` [compound 200]: 7.6 µM.
Next, `CN(C)CCN(C)Cc1nc2ccccc2n1Cc1nc2ccccc2[nH]1` [compound 84]: ≥ 100 µM.
In the case of `C1=CCN(Cc2nc3ccccc3n2Cc2nc3ccccc3[nH]2)CC1` [compound 202], the cytotoxic concentration (CC50) is ≥ 100 µM.
Turning to `c1cncc(CNCc2nc3ccccc3n2Cc2nc3ccccc3[nH]2)c1` [compound 113], the CC50 was ≥ 100 µM.
As for `c1ccc(Oc2cccc(Cn3c(CN4CCCCC4)nc4ccccc43)c2)cc1` [compound 74], the figure is 10 µM; as for `Fc1cc2c(c(Cn3c(CN4CCCCC4)nc4ccccc43)c1)OCOC2` [compound 59], ≥ 100 µM; as for `CC(C)CCN(CCC(C)C)Cc1nc2ccccc2n1Cc1nc2ccccc2[nH]1` [compound 87], ≥ 100 µM.
Consider `O=C1CCCN1CCCNCc1nc2ccccc2n1Cc1nc2ccccc2[nH]1` [compound 158], for which the 50% cytotoxic concentration (CC50) was ≥ 100 µM.
`c1ccc(CN2CCN(Cc3nc4ccccc4n3Cc3nc4ccccc4[nH]3)CC2)cc1` [compound 231] displayed a CC50 of 15 µM.
Regarding `Clc1ccccc1CNCc1nc2ccccc2n1Cc1nc2ccccc2[nH]1` [compound 150], the CC50 is ≥ 100 µM.
Take `c1ccc2[nH]c(Cn3c(CNCCCN4CCOCC4)nc4ccccc43)nc2c1` [compound 124]: the cytotoxic concentration (CC50) was ≥ 100 µM.
Compound `Fc1cc(F)cc(CNCc2nc3ccccc3n2Cc2nc3ccccc3[nH]2)c1` [compound 173] registered a cytotoxic concentration (CC50) of 6.4 µM.
As for `CS(=O)(=O)c1ccc(Cn2c(CN3CCCCC3)nc3ccccc32)cc1` [compound 60], the CC50 was ≥ 100 µM.
Consider `FC(F)(F)c1ccc(N2CCN(Cc3nc4ccccc4n3Cc3nc4ccccc4[nH]3)CC2)nc1` [compound 196], for which the CC50 was 78 µM.
On to `CCCN(Cc1nc2ccccc2n1Cc1cccc(Oc2ccccc2)c1)CC1CC1` [compound 25], for which the CC50 is ≥ 101 µM.
As for `CSc1ccc(Cn2c(CN(C(C)C)C3CCCCC3)nc3ccccc32)cc1` [compound 14], the CC50 amounted to 30 µM.
`c1ccc(CN2CCC(NCc3nc4ccccc4n3Cc3nc4ccccc4[nH]3)CC2)cc1` [compound 137] yielded a cytotoxic concentration (CC50) of 95 µM.
Take `OCCNCc1nc2ccccc2n1Cc1nc2ccccc2[nH]1` [compound 117]: the CC50 was ≥ 100 µM.
For the compound `O=[N+]([O-])c1ccc(Cn2c(CN3CCCCC3)nc3ccccc32)o1` [compound 54], the cytotoxic concentration (CC50) was 97 µM.
Next, `CCCCCN(C)Cc1nc2ccccc2n1Cc1nc2ccccc2[nH]1` [compound 91]: 80 µM; `CC(C)OCCCNCc1nc2ccccc2n1Cc1nc2ccccc2[nH]1` [compound 129]: ≥ 100 µM; `FC(F)(F)Oc1cccc(CNCc2nc3ccccc3n2Cc2nc3ccccc3[nH]2)c1` [compound 127]: ≥ 100 µM.
Next, `CCCCN(CC)Cc1nc2ccccc2n1Cc1nc2ccccc2[nH]1` [compound 92]: 68 µM; `O=C1C(=O)N(Cc2nc3ccccc3n2Cc2nc3ccccc3[nH]2)c2ccc([N+](=O)[O-])cc21` [compound 236]: ≥ 100 µM.
Regarding `CCOC(=O)C1CCN(Cc2nc3ccccc3n2Cc2nc3ccccc3[nH]2)CC1` [compound 203], the CC50 is ≥ 100 µM.
Turning to `c1ccc(C(CNCc2nc3ccccc3n2Cc2nc3ccccc3[nH]2)c2ccccc2)cc1` [compound 132], the 50% cytotoxic concentration (CC50) was ≥ 100 µM.
As for `FC(F)(F)Oc1ccccc1Cn1c(CN2CCCCC2)nc2ccccc21` [compound 62], the figure is 34 µM; as for `COc1ccccc1CCNCc1nc2ccccc2n1Cc1nc2ccccc2[nH]1` [compound 175], ≥ 100 µM; as for `c1ccc2[nH]c(Cn3c(CN4CCCC4)nc4ccccc43)nc2c1` [compound 199], ≥ 100 µM.
Regarding `CCN(CC)CCCC(C)NCc1nc2ccccc2n1Cc1nc2ccccc2[nH]1` (stereo not drawn) [compound 148], the CC50 is ≥ 100 µM.
As for `CC(C)N(C)Cc1nc2ccccc2n1Cc1nc2ccccc2[nH]1` [compound 82], the figure is 25 µM; as for `c1ccc2[nH]c(Cn3c(CN4CCCCCCC4)nc4ccccc43)nc2c1` [compound 233], ≥ 100 µM.
On to `COc1cccc(CNCc2nc3ccccc3n2Cc2nc3ccccc3[nH]2)c1OC` [compound 181], for which the CC50 is ≥ 100 µM.
`Fc1cccc(F)c1CNCc1nc2ccccc2n1Cc1nc2ccccc2[nH]1` [compound 161]: the CC50 is ≥ 100 µM.
As for `COc1cccc(CCNCc2nc3ccccc3n2Cc2nc3ccccc3[nH]2)c1` [compound 135], the CC50 was ≥ 100 µM.
For the compound `OCC1CCCN(Cc2nc3ccccc3n2Cc2nc3ccccc3[nH]2)C1` (stereo not drawn) [compound 211], the midpoint of cytotoxicity, the CC50, lay at 32 µM.
For the compound `c1ccc2[nH]c(Cn3c(CNCCCn4ccnc4)nc4ccccc43)nc2c1` [compound 105], the CC50 was 26 µM.
On to `CC(C)N(Cc1nc2ccccc2n1Cc1ccc(S(C)(=O)=O)cc1)C1CCCCC1` [compound 13], for which the CC50 was ≥ 100 µM.
On to `COc1cc(Cn2c(CN(C(C)C)C3CCCCC3)nc3ccccc32)cc(OC)c1` [compound 3], for which the half-maximal cytotoxic concentration (CC50) worked out at 50 µM.
Consider `O=C(c1ccco1)N1CCN(Cc2nc3ccccc3n2Cc2nc3ccccc3[nH]2)CC1` [compound 198], for which the CC50 was ≥ 100 µM.
Turning to `CN(CCc1ccccn1)Cc1nc2ccccc2n1Cc1nc2ccccc2[nH]1` [compound 98], the CC50 was ≥ 100 µM.
`CCOCCCNCc1nc2ccccc2n1Cc1nc2ccccc2[nH]1` [compound 182]: the CC50 was ≥ 100 µM.
The compound `CCCN(Cc1nc2ccccc2n1Cc1ccc(S(C)(=O)=O)cc1)CC1CC1` [compound 26] displayed a CC50 of 97 µM.
In turn, `ClCc1nc2ccccc2n1Cc1nc2ccccc2[nH]1` [compound 1] yielded a CC50 of 50 µM.
In the case of `CCN(CC)CCNCc1nc2ccccc2n1Cc1nc2ccccc2[nH]1` [compound 162], the CC50 was ≥ 100 µM.
Next, `FC(F)(F)c1ccccc1CNCc1nc2ccccc2n1Cc1nc2ccccc2[nH]1` [compound 139]: 18 µM; `COc1cc(CNCc2nc3ccccc3n2Cc2nc3ccccc3[nH]2)cc(OC)c1` [compound 122]: ≥ 100 µM; `CCN(CCO)Cc1nc2ccccc2n1Cc1nc2ccccc2[nH]1` [compound 96]: ≥ 100 µM.
Consider `CN(C)CCCN(CCCN(C)C)Cc1nc2ccccc2n1Cc1nc2ccccc2[nH]1` [compound 101], for which the CC50 is ≥ 100 µM.
For the compound `COC(=O)c1ccc2nc(CN3CCOCC3)n(Cc3nc4ccccc4[nH]3)c2c1` [compound 11], the midpoint of cytotoxicity, the CC50, lay at 26 µM.
Consider `C1=CCN(Cc2nc3ccccc3n2Cc2nc3ccccc3[nH]2)C1` [compound 201], for which the CC50 was 19 µM.
The compound `c1ccc2[nH]c(Cn3c(CN4CCC5CCCCC5C4)nc4ccccc43)nc2c1` (stereo not drawn) [compound 234] displayed a CC50 of 24 µM.
As to `Cc1nc(Cn2c(CN3CCCCC3)nc3ccccc32)cs1` [compound 51], the CC50 came to 50 µM.
As for `Clc1ccc(CNCc2nc3ccccc3n2Cc2nc3ccccc3[nH]2)cc1Cl` [compound 138], the figure is 6.5 µM.
